Test results taken from patent publication US20240131027A1, “PHARMACEUTICAL COMPOSITION COMPRISING NOVEL SD911 COMPOUND AS ACTIVE INGREDIENT FOR PREVENTION OR TREATMENT OF TRANSPLANT REJECTION” (THE CATHOLIC UNIVERSITY OF KOREA INDUSTRY-ACADEMIC …, priority 2021, published 2024).

Assays:
[1] = tested on: immune cells isolated from the spleens of normal C57/BL6 mice; assay: Suppression of SDF1-induced migration of spleen immune cells in trans wells; assay type: cell-based; details: SD911 20 μM; SDF1 20 ng/ml in lower compartment; FIGS. 1A and 1B
Experimental: The present inventors screened a novel compound SD911 by using activity inhibition analysis of inflammatory cytokines in immune cells of a sphingosin 1-phosphate lyase (SPL) inhibitor, and tried to confirm an immune cell migration inhibitory effect of the screened SD911. Specifically, single cells (immune cells) were isolated from the spleens of normal C57/BL6 mice, and the isolated immune cells were cultured in […] trans wells (upper compartment). For migration of the cultured immune cells, stromal cell-derived factor 1 (SDF1) was treated at a concentration of 20 ng/ml to stimulate the lower compartment. The immune cells moved to the lower compartment by stromal cell-derived factor 1 (SDF1), and at this time, whether the migration was inhibited by SD911 was analyzed.

[2] = tested on: allogenic skin transplantation animal model; assay: Skin transplant viability in allogenic skin transplantation animal model; assay type: in vivo; details: 200 μg/mice
Excerpt: (§1) In order to confirm A therapeutic effect of SD911 of the present invention on transplantation rejection, an allogenic skin transplantation animal model was used. Specifically, as the allogenic skin transplantation animal model, the tail skins of male donor […] mice (Orient Bio Inc.) were exfoliated and transplanted onto the back skins of male recipient BALB/c mice (Orient Bio Inc.). One day before transplant, the recipient mice were divided into two groups, a control group (Saline group) administered intraperitoneally with physiological saline, and an experimental group (SD911 group) administered with SD911 at a concentration of 200 μg/mice.
The skin changes of the control group or the experimental group (SD911 group) treated with SD911 at a concentration of 200 μg/mice were observed daily, and the viability was calculated by calculating the rejection when scab formation or skin atrophy of 70% or more occurred on the transplanted skin. A drug administration schedule was illustrated in FIG. 2A.

[3] = tested on: T cell subtypes (Th1, Th2, Th17, Treg); assay: T cell subtype analysis by flow cytometry of spleen immune cells in skin transplantation model; assay type: in vivo; details: 200 μg/mice, spleen after 5 days, compared to control group
Excerpt: as §1
Some of the recipient mice that had undergone the skin transplant were humanely sacrificed after 5 days, the spleens were extracted, and immune cells were isolated from the spleens. In order to analyze T cell subtypes in the isolated immune cells, flow cytometry was performed, and to identify pro-inflammatory T cells, the number of CD4+, IFN+, IL4+ and IL17+ positive cells was analyzed. In addition, regulatory T cells (Treg) were identified as CD4+CD25+Foxp3+ positive cells.

[4] = tested on: human leukocyte antigen (HLA); assay: HLA inhibition in IFNγ-treated kidney organoids (in vitro rejection model); assay type: cell-based; details: 50 μM SD911; kidney organoids from WTC-11 iPSC treated with IFNγ; FIG. 4
Experimental: (§2) WTC-11 cells, standard normal human induced pluripotent stem cells (iPSC) were differentiated into kidney organoids and treated with IFNγ, a cytokine known to induce transplantation rejection to construct an in vitro rejection model increasing human leukocyte antigen (HLA). Thereafter, the constructed kidney organoids were treated with 50 μM of SD911.

kidney organoids = assay: Flow cytometry of nephron marker double positive cells in cytokine-treated kidney organoids; assay type: cell-based, human; details: SD911 50 μg/mL; TNF-α and INFγ treated kidney organoids; FIGS. 5A to 5F
Experimental: as §2
In the kidney organoids prepared in Example 3-1, when treated with the cytokines TNF-α and INFγ and when treated with SD911 at a concentration of 50 μg/mL, changes in cell patterns were analyzed by flow cytometry. Specifically, the patterns of nephron markers PODXL, LTL, ECAD and double positive cells in kidney organoids were analyzed.

[5] = tested on: kidney transplantation rejection model; assay: Cell infiltration and kidney damage (H&E) in kidney transplantation rejection model; assay type: in vivo; details: 300 μg/mice, compared with the vehicle group, FIGS. 8A and 8B
Experimental: In order to produce a kidney transplantation rejection model, peripheral blood mononuclear cells (PBMCs) derived from transplantation rejection patients (kidney transplantation rejection patients) were intravascularly injected at a cell concentration of 5×10^6/mice, and then after 3 weeks, engraftment of transplantation rejection patient cells in the blood was confirmed, and a kidney transplantation rejection model was constructed. As a control group, normal human PBMCs were injected (FIG. 6). At 3 weeks after PBMC administration to the kidney transplantation rejection model prepared in Example 4-1, the mice were treated with physiological saline (vehicle) and SD911 (300 μg/mice) and sacrificed at 4 weeks and then the kidneys of the mice were extracted.

[6] = tested on: CD4+T (CD4+), subtype of human immune cells; assay: CD4 positive cell infiltration in renal tissue by immunohistochemical staining, kidney transplantation rejection model; assay type: in vivo; details: 300 μg/mice, group injected with PBMCs of patients with kidney transplantation rejection, FIGS. 9A and 9B
Experimental: (§3) In order to produce a kidney transplantation rejection model, peripheral blood mononuclear cells (PBMCs) derived from transplantation rejection patients (kidney transplantation rejection patients) were intravascularly injected at a cell concentration of 5×10^6/mice, and then after 3 weeks, engraftment of transplantation rejection patient cells in the blood was confirmed, and a kidney transplantation rejection model was constructed. As a control group, normal human PBMCs were injected (FIG. 6).
(§4) At 3 weeks after PBMC administration to the kidney transplantation rejection model prepared in Example 4-1, the mice were treated with physiological saline (vehicle) and SD911 (300 μg/mice) and sacrificed at 4 weeks and then the kidneys of the mice were extracted.
Immunohistochemical staining was performed to confirm whether CD4+T (CD4+), subtype of human immune cells, has been infiltrated in the renal tissue extracted in Example 4-2. The extracted tissue was fixed with formalin, and then embedded in paraffin to generate slices with a thickness of 5 μm. In order to observe immune cells in the tissue, immunohistochemical analysis was performed by reacting with a human CD4 antibody on the slice slide.

IL-17 = IL-17 positive cell infiltration in renal tissue by immunohistochemical staining, kidney transplantation rejection model; assay type: in vivo; details: 300 μg/mice, group injected with PBMCs of patients with kidney transplantation rejection, FIGS. 10A and 10B
Experimental: as §3, §4
Immunohistochemical staining was performed to confirm whether IL-17, an inflammatory cytokine, has been infiltrated into the renal tissue extracted in Example 4-2. The extracted tissue was fixed with formalin, and then embedded in paraffin to generate slices with a thickness of 5 μm. In order to observe immune cells in the tissue, immunohistochemical analysis was performed by reacting with a human IL-17 antibody on the slice slide.

C[C@@H]1CN(c2nnc(Oc3ccccc3)c3ccccc23)CCN1c1ccc(C#N)cn1 [SD911, 6-((R)-2-methyl-4-(1-phenoxyphthalazin-4-yl)piperazin-1-yl)pyridine-3-carbonitrile]
migration of immune cells induced by SDF1 [1]: blocked | viability of the transplanted skin ([2]; compared to control (Saline) group, FIG. 2B): significantly increased | survival time of the transplanted skin ([2]; compared to control group, FIG. 2C): significantly increased | number of Th1 cells ([3]; FIG. 3A): significantly decreased | number of Th2 cells ([3]; FIG. 3B): significantly decreased | number of Th17 cells ([3]; FIG. 3C): significantly decreased | Treg (CD4+CD25+Foxp3+ positive cells) ([3]; FIG. 3D): increased | HLA increased by IFNγ [4]: suppressed | positive cell ratio of the nephron marker (PODXL, LTL, ECAD double positive cells) (kidney organoids): significantly decreased | kidney damage [5]: suppressed | human PBMC infiltration ([5]; glomerulus): suppressed | infiltration of CD4-positive cells [6]: significantly reduced | infiltration of IL-17-positive cells (IL-17): significantly reduced
